Reference: patent US20240368135A1 (VERTEX PHARMACEUTICALS INCORPORATED, priority 2021, published 2024)

Target: human NaV 1.8 (Homo sapiens, UniProt Q9Y5Y9)
Assay: E-VIPR assay detecting and measuring NaV inhibition properties
Format: cell-based
Conditions: HEK cells expressing truncated human NaV 1.8; no human serum; read-out: IC50 in the E-VIPR Assay
Text: Sodium ion channels are voltage-dependent proteins that can be activated by inducing membrane voltage changes by applying electric fields. The electrical stimulation instrument and methods of use, referred to as E-VIPR, are described in International Publication No. WO 2002/008748 A3 and C.-J. Huang et al. Characterization of voltage-gated sodium channel blockers by electrical stimulation and fluorescence detection of membrane potential, 24 Nature Biotech. 439-46 (2006), both of which are incorporated by reference in their entirety. The instrument comprises a microtiter plate handler, an optical system for exciting the coumarin dye while simultaneously recording the coumarin and oxonol emissions, a waveform generator, a current- or voltage-controlled amplifier, and parallel electrode pairs that are inserted into assay plate wells. Under integrated computer control, this instrument passes user-programmed electrical stimulus protocols to cells within the wells of the microtiter plate.
16-20 hours prior to running the assay on E-VIPR, HEK cells expressing a truncated form of human NaV 1.8 with full channel activity were seeded into microtiter 384-well plates, pre-coated with matrigel, at a density of 25,000 cells per well. 2.5-5% KIR2.1 Bacmam virus was added to the final cell suspension before seeding into cell plates. HEK cells were grown in Dulbecco's Modified Eagle's Medium (DMEM) supplemented with 10% FBS (Fetal Bovine Serum, qualified; Sigma #F4135), 1% NEAA (Non-Essential Amino Acids, Gibco #11140), 1% HEPES (Gibco #15630), 1% Pen-Strep (Penicillin-Streptomycin; Gibco #15140) and 5 μg/ml Blasticidin (Gibco #R210-01). Cells were expanded in vented cap cell culture flasks, with 90-95% humidity and 5% CO2.
Human Serum (HS, Millipore #S1P1-01KL, or Sigma SLBR5469V and SLBR5470V as a 50%/50% mixture, for 25% assay final concentration) • Bath 1 Buffer: • Sodium Chloride 160 mM (9.35 g/L), Potassium Chloride, 4.5 mM (0.335 g/L), Glucose 10 mM (1.8 g/L), Magnesium Chloride (Anhydrous) 1 mM (0.095 g/L), Calcium Chloride 2 mM (0.222 g/L), HEPES 10 mM (2.38 g/L) in water. • Na/TMA C1 Bath 1 Buffer: • Sodium Chloride 96 mM (5.61 g/L), Potassium Chloride 4.5 mM (0.335 g/L), Tetramethylammonium (TMA)-Cl 64 mM (7.01 g/L), Glucose 10 mM (1.8 g/L), Magnesium Chloride (Anhydrous) 1 mM (0.095 g/L), Calcium Chloride 2 mM (0.222 g/L) HEPES 10 mM (2.38 g/L) in water. • Hexyl Dye Solution (2× concentration): • Bath 1 Buffer containing 0.5% P-cyclodextrin (made fresh prior to each use, Sigma #C4767), 8 μM CC2-DMPE and 2 μM DiSBAC6(3). The solution was made by adding 10% Pluronic F127 stock equal to combined volumes of CC2-DMPE and DiSBAC6(3). The order of preparation was first mix Pluronic and CC2-DMPE, then add DiSBAC6(3), then while vortexing add Bath 1/p-Cyclodextrin.
Compound Loading Buffer (2× concentration): Na/TMA C1 Bath1 Buffer containing HS (omitted in experiments run in the absence of human serum (HS)) 50%, VABSC-1 1 mM, BSA 0.2 mg/ml (in Bath-1), KCl 9 mM, DMSO 0.625%.
1) To reach the final concentration in each well, 375 nL of each compound was pre-spotted (in neat DMSO) into polypropylene compound plates at 240× desired final concentration from an intermediate stock concentration of 0.075 mM, in an 11 point dose response, 3-fold dilution, resulting in a top dose of 300 nM final concentration in the cell plate. Vehicle control (neat DMSO), and positive control (an established NaV1.8 inhibitor, 25 μM final in assay in DMSO) were added manually to the outermost columns of each plate respectively. The compound plate was backfilled with 45 μL per well of Compound Loading Buffer resulting in a 240 fold dilution of compound following a 1:1 transfer of compound into the cell plate (see Step 6). Final DMSO concentration for all wells in the assay was 0.625% (0.75% DMSO was supplemented to the Compound Loading Buffer for a final DMSO concentration of 0.625%). […]

Chain of human NaV 1.8 (Q9Y5Y9 126-399 limits assumed): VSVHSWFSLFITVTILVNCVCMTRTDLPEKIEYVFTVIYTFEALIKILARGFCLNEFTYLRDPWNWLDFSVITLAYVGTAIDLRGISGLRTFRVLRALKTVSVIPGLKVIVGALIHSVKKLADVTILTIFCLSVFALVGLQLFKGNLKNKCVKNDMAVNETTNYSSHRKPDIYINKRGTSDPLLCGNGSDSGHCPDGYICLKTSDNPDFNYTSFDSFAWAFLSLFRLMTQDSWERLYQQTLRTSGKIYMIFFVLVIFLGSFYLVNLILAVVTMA
Chain of human NaV 1.8 (Q9Y5Y9 660-890 limits assumed): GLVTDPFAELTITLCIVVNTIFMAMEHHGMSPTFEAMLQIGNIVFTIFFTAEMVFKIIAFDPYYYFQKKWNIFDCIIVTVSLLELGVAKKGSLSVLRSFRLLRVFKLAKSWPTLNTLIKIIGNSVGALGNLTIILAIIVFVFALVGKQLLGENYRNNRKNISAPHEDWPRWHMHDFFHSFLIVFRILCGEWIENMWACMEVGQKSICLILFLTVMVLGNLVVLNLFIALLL
Chain of human NaV 1.8 (Q9Y5Y9 1148-1722 limits assumed): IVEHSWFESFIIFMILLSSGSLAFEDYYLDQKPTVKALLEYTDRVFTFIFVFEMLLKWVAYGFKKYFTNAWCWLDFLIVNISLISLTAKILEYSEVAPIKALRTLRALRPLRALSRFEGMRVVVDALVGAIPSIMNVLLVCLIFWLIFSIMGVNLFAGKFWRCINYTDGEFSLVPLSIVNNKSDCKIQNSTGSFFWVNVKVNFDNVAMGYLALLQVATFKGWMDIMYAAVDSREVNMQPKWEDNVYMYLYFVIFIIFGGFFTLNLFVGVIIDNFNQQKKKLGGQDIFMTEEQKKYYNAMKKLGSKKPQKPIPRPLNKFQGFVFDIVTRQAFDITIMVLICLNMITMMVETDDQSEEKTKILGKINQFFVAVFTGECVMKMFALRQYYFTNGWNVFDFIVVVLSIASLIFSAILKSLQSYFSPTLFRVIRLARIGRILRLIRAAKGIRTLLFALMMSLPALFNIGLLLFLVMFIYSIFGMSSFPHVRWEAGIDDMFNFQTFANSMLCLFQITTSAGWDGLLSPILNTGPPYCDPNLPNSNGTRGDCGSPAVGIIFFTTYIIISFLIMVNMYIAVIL

IC50	Compound
≥ 1000 nM	COc1c(C2C(C(=O)Nc3cccnc3)OC(C)(C(F)(F)F)C2C)ccc(F)c1F (single isomer, unassigned) [Compound 29, 3-(3,4-difluoro-2-methoxy-phenyl)-4,5-dimethyl-N-(3-pyridyl)-5-(trifluoromethyl)tetrahydrofuran-2-carboxamide]
< 10 nM	COc1c(C2C(C(=O)Nc3cccnc3)OC(C)(C(F)(F)F)C2C)ccc(F)c1F (single isomer, unassigned) [Compound 30, 3-(3,4-difluoro-2-methoxy-phenyl)-4,5-dimethyl-N-(3-pyridyl)-5-(trifluoromethyl)tetrahydrofuran-2-carboxamide]
≥ 1000 nM	COCCOc1cc(NC(=O)C2OC(C)(C(F)(F)F)C(C)C2c2ccc(F)c(F)c2OC)cnn1 (single isomer, unassigned) [Compound 33, 3-(3,4-difluoro-2-methoxy-phenyl)-N-[6-(2-methoxyethoxy)pyridazin-4-yl]-4,5-dimethyl-5-(trifluoromethyl)tetrahydrofuran-2-carboxamide]
10 to 100 nM	COCCOc1cc(NC(=O)C2OC(C)(C(F)(F)F)C(C)C2c2ccc(F)c(F)c2OC)cnn1 (single isomer, unassigned) [Compound 34, 3-(3,4-difluoro-2-methoxy-phenyl)-N-[6-(2-methoxyethoxy)pyridazin-4-yl]-4,5-dimethyl-5-(trifluoromethyl)tetrahydrofuran-2-carboxamide]
≥ 1000 nM	COc1c(C2C(C(=O)Nc3ccncn3)OC(C)(C(F)(F)F)C2C)ccc(F)c1F (single isomer, unassigned) [Compound 35, 3-(3,4-difluoro-2-methoxy-phenyl)-4,5-dimethyl-N-pyrimidin-4-yl-5-(trifluoromethyl)tetrahydrofuran-2-carboxamide]
< 10 nM	COc1c(C2C(C(=O)Nc3ccncn3)OC(C)(C(F)(F)F)C2C)ccc(F)c1F (single isomer, unassigned) [Compound 36, 3-(3,4-difluoro-2-methoxy-phenyl)-4,5-dimethyl-N-pyrimidin-4-yl-5-(trifluoromethyl)tetrahydrofuran-2-carboxamide]
≥ 1000 nM	COc1c(C2C(C(=O)Nc3cncnc3)OC(C)(C(F)(F)F)C2C)ccc(F)c1F (single isomer, unassigned) [Compound 37, 3-(3,4-difluoro-2-methoxy-phenyl)-4,5-dimethyl-N-pyrimidin-5-yl-5-(trifluoromethyl)tetrahydrofuran-2-carboxamide]
< 10 nM	COc1c(C2C(C(=O)Nc3cncnc3)OC(C)(C(F)(F)F)C2C)ccc(F)c1F (single isomer, unassigned) [Compound 38, 3-(3,4-difluoro-2-methoxy-phenyl)-4,5-dimethyl-N-pyrimidin-5-yl-5-(trifluoromethyl)tetrahydrofuran-2-carboxamide]
100 to 1000 nM	COc1c(C2C(C(=O)Nc3ccc(P(C)(C)=O)cc3)OC(C)(C(F)(F)F)C2C)ccc(F)c1F (single isomer, unassigned) [Compound 39, 3-(3,4-difluoro-2-methoxy-phenyl)-N-(4-dimethylphosphorylphenyl)-4,5-dimethyl-5-(trifluoromethyl)tetrahydrofuran-2-carboxamide]
≥ 1000 nM	COc1c(C2C(C(=O)Nc3cccc(P(C)(C)=O)c3)OC(C)(C(F)(F)F)C2C)ccc(F)c1F (single isomer, unassigned) [Compound 41, 3-(3,4-difluoro-2-methoxy-phenyl)-N-(3-dimethylphosphorylphenyl)-4,5-dimethyl-5-(trifluoromethyl)tetrahydrofuran-2-carboxamide]
< 10 nM	COc1c(C2C(C(=O)Nc3cccc(P(C)(C)=O)c3)OC(C)(C(F)(F)F)C2C)ccc(F)c1F (single isomer, unassigned) [Compound 42, 3-(3,4-difluoro-2-methoxy-phenyl)-N-(3-dimethylphosphorylphenyl)-4,5-dimethyl-5-(trifluoromethyl)tetrahydrofuran-2-carboxamide]
